Values quoted from earlier work in US11304902B2, “Pharmaceutical compositions, preparation and uses thereof” (CURADIGM SAS, priority 2014, dated 2022).
“Also recorded” adds a separate entry of the source. Read-outs that look alike come from different tables or passages of the source.

Experiments:
Conditions in all cases: human CYP enzyme
CYP2B6 = biological target: T1, CYP2B6 (Homo sapiens, UniProt P20813)
T1 sequence (P20813 1-491): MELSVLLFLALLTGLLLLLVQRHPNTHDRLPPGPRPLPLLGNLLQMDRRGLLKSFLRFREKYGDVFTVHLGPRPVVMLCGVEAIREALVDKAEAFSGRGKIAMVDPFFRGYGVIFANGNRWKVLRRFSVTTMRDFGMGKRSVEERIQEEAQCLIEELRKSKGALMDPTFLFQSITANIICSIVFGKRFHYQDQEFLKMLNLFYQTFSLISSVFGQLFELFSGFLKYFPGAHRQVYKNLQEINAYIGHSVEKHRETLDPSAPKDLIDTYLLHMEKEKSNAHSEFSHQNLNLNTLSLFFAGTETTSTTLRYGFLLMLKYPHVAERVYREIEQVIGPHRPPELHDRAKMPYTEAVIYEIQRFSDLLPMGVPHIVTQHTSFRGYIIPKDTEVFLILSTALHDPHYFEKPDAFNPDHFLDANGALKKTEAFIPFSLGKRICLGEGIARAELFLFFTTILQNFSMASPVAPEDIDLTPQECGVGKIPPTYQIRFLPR

CYP2C9 = CYP2C9 (Homo sapiens, UniProt P11712)
Sequence of CYP2C9 (P11712 whole entry): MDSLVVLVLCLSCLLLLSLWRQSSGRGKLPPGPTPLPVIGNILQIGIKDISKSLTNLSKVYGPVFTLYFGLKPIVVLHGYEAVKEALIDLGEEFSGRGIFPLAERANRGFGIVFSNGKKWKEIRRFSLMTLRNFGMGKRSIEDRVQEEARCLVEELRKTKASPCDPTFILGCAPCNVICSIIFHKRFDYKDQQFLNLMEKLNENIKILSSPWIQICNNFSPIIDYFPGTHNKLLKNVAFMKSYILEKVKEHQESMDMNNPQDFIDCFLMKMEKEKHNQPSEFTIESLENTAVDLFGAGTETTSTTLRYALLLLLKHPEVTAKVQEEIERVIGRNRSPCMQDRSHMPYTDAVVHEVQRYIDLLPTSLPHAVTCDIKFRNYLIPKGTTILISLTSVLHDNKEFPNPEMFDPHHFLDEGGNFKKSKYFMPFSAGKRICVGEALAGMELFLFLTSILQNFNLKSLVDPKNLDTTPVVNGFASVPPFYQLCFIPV

CYP2C19 = CYP2C19 (Homo sapiens, UniProt P33261)
Sequence of CYP2C19 (P33261 whole entry): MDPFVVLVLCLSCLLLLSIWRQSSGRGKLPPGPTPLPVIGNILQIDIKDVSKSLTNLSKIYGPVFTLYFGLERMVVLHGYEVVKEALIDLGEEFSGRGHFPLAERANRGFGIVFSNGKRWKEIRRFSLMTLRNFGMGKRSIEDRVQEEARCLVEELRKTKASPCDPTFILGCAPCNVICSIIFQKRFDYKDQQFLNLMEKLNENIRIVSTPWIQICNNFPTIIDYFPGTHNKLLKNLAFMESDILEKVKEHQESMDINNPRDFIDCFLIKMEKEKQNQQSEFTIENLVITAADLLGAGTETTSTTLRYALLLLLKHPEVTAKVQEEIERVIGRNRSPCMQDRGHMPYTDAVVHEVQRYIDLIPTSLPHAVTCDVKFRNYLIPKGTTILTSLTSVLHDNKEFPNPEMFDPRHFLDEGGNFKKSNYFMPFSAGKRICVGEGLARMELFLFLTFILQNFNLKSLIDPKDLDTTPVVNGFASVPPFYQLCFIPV

CYP2D6 = CYP2D6 (Homo sapiens, UniProt P10635)
Sequence of CYP2D6 (P10635 whole entry): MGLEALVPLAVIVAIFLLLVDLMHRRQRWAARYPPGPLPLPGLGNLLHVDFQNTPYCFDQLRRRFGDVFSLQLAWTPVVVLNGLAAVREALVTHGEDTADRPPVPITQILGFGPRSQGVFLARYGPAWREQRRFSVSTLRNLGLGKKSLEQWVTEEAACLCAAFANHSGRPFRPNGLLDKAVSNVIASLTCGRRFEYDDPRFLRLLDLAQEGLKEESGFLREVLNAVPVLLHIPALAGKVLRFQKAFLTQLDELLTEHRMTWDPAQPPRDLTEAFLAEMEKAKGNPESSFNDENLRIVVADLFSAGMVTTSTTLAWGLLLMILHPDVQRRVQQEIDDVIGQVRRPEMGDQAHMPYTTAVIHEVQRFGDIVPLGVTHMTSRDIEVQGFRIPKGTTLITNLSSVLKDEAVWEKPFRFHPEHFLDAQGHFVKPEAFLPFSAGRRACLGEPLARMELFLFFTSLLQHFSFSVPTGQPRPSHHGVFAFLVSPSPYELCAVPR

CYP1A1 = biological target: T2, CYP1A1 (Homo sapiens, UniProt P04798)
T2 sequence (P04798 1-512): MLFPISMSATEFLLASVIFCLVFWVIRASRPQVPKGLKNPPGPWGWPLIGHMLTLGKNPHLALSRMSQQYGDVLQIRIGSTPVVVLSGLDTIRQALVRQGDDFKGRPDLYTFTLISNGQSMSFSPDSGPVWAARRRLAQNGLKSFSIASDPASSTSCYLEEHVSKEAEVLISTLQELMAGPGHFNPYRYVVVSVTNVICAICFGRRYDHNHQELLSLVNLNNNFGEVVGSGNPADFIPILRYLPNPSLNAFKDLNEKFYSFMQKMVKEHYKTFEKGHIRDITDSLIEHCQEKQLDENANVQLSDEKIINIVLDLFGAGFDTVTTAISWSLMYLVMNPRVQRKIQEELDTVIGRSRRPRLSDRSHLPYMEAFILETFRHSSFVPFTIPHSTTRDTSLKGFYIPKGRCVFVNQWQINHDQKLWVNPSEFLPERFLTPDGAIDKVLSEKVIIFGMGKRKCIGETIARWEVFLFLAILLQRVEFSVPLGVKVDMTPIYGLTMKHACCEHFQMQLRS

CYP2C8 = biological target: T3, CYP2C8 (Homo sapiens, UniProt P10632)
T3 sequence (P10632 1-490): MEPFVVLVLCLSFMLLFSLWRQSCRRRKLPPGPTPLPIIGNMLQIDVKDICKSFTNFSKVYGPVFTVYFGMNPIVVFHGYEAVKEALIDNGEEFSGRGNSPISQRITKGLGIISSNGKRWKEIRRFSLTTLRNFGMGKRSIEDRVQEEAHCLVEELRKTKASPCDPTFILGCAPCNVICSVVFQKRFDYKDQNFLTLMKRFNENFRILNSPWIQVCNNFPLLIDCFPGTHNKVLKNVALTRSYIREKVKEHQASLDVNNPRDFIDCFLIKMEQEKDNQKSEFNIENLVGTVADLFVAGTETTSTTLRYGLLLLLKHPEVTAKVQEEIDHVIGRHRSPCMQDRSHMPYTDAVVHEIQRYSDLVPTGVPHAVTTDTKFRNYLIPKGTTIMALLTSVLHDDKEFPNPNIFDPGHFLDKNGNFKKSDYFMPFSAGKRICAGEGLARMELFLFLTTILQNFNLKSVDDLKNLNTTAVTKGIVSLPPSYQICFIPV

CYP1A2 = biological target: T4, CYP1A2 (Homo sapiens, UniProt P05177)
T4 sequence (P05177 1-516): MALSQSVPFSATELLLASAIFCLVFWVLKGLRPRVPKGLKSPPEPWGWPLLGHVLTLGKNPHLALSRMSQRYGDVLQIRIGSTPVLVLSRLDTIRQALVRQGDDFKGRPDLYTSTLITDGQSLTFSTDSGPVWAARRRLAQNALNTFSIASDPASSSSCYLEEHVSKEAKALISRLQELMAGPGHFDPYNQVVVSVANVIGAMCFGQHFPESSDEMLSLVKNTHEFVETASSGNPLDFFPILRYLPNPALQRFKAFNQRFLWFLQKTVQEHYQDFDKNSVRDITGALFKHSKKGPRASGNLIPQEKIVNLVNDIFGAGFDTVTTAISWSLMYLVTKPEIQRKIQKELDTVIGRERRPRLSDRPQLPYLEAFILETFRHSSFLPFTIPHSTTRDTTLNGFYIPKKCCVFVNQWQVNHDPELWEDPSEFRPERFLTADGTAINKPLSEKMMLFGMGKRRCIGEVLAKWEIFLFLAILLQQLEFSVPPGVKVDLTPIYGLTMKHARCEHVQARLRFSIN

CYP2C18 = biological target: T5, CYP2C18 (Homo sapiens, UniProt P33260)
T5 sequence (P33260 26-490): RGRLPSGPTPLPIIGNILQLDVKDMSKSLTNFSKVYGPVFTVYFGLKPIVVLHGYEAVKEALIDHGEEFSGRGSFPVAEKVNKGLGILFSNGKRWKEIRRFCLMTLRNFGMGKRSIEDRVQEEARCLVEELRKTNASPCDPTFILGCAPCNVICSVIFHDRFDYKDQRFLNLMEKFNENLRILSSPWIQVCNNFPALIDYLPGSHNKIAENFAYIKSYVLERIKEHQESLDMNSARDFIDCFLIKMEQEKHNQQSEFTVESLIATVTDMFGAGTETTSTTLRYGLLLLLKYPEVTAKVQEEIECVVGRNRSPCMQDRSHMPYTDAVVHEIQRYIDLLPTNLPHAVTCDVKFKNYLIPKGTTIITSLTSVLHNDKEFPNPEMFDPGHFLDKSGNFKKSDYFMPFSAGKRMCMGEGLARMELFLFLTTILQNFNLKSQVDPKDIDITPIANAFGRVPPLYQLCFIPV

CYP3A4 = CYP3A4 (Homo sapiens, UniProt P08684)
Sequence of CYP3A4 (P08684 whole entry): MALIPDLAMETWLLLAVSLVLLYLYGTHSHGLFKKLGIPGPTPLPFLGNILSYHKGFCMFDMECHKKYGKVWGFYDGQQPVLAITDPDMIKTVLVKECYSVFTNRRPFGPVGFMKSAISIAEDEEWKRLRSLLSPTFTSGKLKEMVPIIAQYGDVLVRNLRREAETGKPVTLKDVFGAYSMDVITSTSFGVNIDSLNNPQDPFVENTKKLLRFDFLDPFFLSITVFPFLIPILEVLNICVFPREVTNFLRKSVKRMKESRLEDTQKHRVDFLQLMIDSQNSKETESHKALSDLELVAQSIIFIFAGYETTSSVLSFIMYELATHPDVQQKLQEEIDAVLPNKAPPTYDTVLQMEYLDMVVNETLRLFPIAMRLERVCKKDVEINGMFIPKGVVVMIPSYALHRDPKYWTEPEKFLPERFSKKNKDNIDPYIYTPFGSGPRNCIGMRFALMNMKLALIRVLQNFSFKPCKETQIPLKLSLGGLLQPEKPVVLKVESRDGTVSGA

CYP11B1 = biological target: T6, CYP11B1 (Homo sapiens, UniProt P15538)
T6 sequence (P15538 25-503): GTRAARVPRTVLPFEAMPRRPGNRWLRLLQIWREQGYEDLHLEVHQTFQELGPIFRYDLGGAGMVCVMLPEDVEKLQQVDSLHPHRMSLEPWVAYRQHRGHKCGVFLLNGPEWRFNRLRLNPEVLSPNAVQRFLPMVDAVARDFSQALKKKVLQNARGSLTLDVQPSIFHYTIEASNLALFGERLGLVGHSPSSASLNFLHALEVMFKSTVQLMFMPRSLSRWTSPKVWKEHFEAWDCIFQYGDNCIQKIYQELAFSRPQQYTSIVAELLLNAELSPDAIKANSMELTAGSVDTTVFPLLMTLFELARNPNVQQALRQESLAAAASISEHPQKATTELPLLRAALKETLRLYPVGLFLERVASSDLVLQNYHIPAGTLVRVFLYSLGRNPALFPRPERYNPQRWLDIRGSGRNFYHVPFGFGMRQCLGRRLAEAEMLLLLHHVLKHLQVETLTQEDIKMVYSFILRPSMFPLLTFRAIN

CYP1B1 = biological target: T7, CYP1B1 (Homo sapiens, UniProt Q16678)
T7 sequence (Q16678 1-543): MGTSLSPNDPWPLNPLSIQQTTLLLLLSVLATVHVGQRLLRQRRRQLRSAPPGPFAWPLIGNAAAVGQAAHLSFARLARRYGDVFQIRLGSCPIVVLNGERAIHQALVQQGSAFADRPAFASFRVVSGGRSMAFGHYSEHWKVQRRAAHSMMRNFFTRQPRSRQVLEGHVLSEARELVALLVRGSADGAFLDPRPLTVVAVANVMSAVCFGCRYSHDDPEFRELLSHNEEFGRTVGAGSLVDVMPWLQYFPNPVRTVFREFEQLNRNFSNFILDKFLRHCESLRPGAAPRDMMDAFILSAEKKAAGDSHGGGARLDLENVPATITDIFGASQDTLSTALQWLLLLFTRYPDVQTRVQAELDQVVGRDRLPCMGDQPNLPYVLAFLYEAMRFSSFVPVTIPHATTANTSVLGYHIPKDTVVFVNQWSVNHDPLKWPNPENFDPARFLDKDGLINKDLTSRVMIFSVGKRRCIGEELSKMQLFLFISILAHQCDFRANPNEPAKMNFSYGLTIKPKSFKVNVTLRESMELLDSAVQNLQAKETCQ

| Structure (SMILES) | role towards CYP2B6 (substrate / inhibitor / inducer) (CYP2B6) | role towards CYP2D6 (substrate / inhibitor / inducer) (CYP2D6) | role towards CYP1A1 (substrate / inhibitor / inducer) (CYP1A1) | role towards CYP3A4 (substrate / inhibitor / inducer) (CYP3A4) | further results |
| --- | --- | --- | --- | --- | --- |
| O=C1Nc2ccc(Cl)cc2[C@@](C#CC2CC2)(C(F)(F)F)O1 [Efavirenz, efavirenz] | Substrate; also recorded: inhibitor | inhibitor |  |  | role towards CYP2C9 (substrate / inhibitor / inducer) (CYP2C9): inhibitor; role towards CYP2C19 (substrate / inhibitor / inducer) (CYP2C19): inhibitor |
| CC1=C(/C=C/C(C)=C/C=C/C(C)=C/CO)C(C)(C)CCC1 [Vitamin A retinol, retinol] | Inhibitor | Substrate | Inhibitor |  | role towards CYP2C8 (substrate / inhibitor / inducer) (CYP2C8): Inhibitor; also recorded: Substrate |
| O=c1cc(-c2ccc(O)cc2)oc2cc(O)cc(O)c12 [Apigenin, apigenin] |  |  | Inhibitor |  |  |
| CC(=O)CC(c1ccccc1)c1c(O)c2ccccc2oc1=O (stereo not drawn) [Warfarin, warfarin] |  |  | Substrate | Substrate | role towards CYP1A2 (substrate / inhibitor / inducer) (CYP1A2): Substrate; role towards CYP2C8 (substrate / inhibitor / inducer) (CYP2C8): Substrate; role towards CYP2C18 (substrate / inhibitor / inducer) (CYP2C18): Substrate |
| CO[C@H]1/C=C/O[C@@]2(C)Oc3c(C)c(O)c4c(O)c(c(/C=N/N5CCN(C)CC5)c(O)c4c3C2=O)NC(=O)/C(C)=C\C=C\[C@H](C)[C@H](O)[C@@H](C)[C@@H](O)[C@@H](C)[C@H](OC(C)=O)[C@@H]1C [Rifampin, rifampin] | inducer |  |  |  | role towards CYP2C18 (substrate / inhibitor / inducer) (CYP2C18): inducer |
| CC(=O)O[C@H]1C(=O)[C@@]2(C)[C@H]([C@H](OC(=O)c3ccccc3)[C@]3(O)C[C@H](OC(=O)[C@H](O)[C@@H](NC(=O)c4ccccc4)c4ccccc4)C(C)=C1C3(C)C)[C@]1(OC(C)=O)CO[C@@H]1C[C@@H]2O [Paclitaxel, paclitaxel] |  |  |  | Substrate; also recorded: inhibitor |  |
| O=C1C[C@@H](c2ccc(O)cc2)Oc2cc(O)cc(O)c21 [Naringenin, naringenin] |  |  |  | inhibitor | role towards CYP11B1 (substrate / inhibitor / inducer) (CYP11B1): Inhibitor |
| COc1cccc2c1C(=O)c1c(O)c3c(c(O)c1C2=O)C[C@@](O)(C(=O)CO)C[C@@H]3O[C@H]1C[C@H](N)[C@H](O)[C@H](C)O1 [Doxorubicin, doxorubicin] |  | inhibitor |  | Substrate; also recorded: inhibitor |  |
| CC(=O)O[C@@]12CO[C@@H]1C[C@H](O)[C@@]1(C)C(=O)[C@H](O)C3=C(C)[C@@H](OC(=O)[C@H](O)[C@@H](NC(=O)OC(C)(C)C)c4ccccc4)C[C@@](O)([C@@H](OC(=O)c4ccccc4)[C@H]21)C3(C)C [Docetaxel, docetaxel] |  |  |  | Substrate | role towards CYP1B1 (substrate / inhibitor / inducer) (CYP1B1): Substrate; also recorded: inhibitor; role towards CYP3A4 (substrate / inhibitor / inducer) (CYP3A4; listed as docetaxel): substrate |
